The record followed here is PMC9334755 (Cancer Biology & Medicine, 2021).

This test deals with T1, BTK (Mus musculus, UniProt P35991).
T1 construct: from tissue; host or cells: splenocytes from spleens of normal BALB/c mice
As to the kind of experiment: In vivo occupancy of BTK in mouse splenocytes. The conditions noted are these: BALB/c mice, oral 50 mg/kg, 12 h after administration. As to the method:
Cells were treated as indicated before the addition of a fluorescent probe (FL-SY-1530). After incubation, cells were collected and lysed for 5 min in cell lysis buffer. For analysis of the in vivo occupancy of BTK inhibitors, normal BALB/c mice (6–8 weeks old) were orally administered BTK inhibitors, […] seeded on 12-well plates and incubated with the fluorescent probe for 1 h. Then the samples were subjected to SDS-PAGE, and the gels were scanned with a Typhoon imaging system (excitation at 532 nm and emission at 555 nm). After scanning, the gels were detected with Western blot.
Figure 3 SY-1530 binds BTK in a dose-dependent and time-dependent manner. (A) The content of SY-1530 was measured with LC-MS/MS after incubation with BTK for the indicated time periods. Data are shown as the mean ± SEM. (B) SY-1530 was incubated with different concentrations of BTK, and LC-MS/MS was then performed to detect SY-1530 content. Data are shown as the mean ± SEM of 3 independent experiments. Statistical analysis was performed with Student’s t-test (**P < 0.01, ***P < 0.001). […] Cells were lysed and then analyzed by Western blot and fluorescent gel scanning. […] The concentration of SY-1530 in the plasma was measured with LC-MS/MS. […] Cells were lysed and analyzed by Western blot and fluorescent gel scanning. The concentration of SY-1530 in the plasma was measured with LC-MS/MS.

T1 sequence (P35991 whole entry): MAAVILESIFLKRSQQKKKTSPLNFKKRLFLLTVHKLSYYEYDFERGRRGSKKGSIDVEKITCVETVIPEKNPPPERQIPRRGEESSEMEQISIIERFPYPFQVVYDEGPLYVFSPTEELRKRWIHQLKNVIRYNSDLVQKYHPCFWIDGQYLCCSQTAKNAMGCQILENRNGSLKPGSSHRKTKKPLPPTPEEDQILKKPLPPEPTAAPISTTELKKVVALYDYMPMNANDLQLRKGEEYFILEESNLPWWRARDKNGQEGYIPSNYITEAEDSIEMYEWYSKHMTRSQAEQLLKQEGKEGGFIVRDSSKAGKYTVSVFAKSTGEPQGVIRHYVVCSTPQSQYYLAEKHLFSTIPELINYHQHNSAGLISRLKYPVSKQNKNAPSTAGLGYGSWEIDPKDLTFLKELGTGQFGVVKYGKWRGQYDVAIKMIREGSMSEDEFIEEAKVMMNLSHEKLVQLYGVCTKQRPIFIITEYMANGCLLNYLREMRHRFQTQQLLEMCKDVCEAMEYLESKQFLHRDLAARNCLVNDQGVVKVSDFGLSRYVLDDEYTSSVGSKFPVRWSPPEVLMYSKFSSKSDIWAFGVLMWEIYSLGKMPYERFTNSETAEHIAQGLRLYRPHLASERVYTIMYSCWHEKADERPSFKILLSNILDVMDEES

`COC/C=C/C(=O)N1CC[C@@H](n2nc(-c3ccc(Oc4ccccc4)cc3)c(C(N)=O)c2N)C1` [SY-1530]: the “BTK protein in splenocytes bound by inhibitor” value is “still bound”.
